Assays:
[1] = tested on: mice (hot plate paradigm); experiment: mouse hot plate paradigm (analgesia, tenth jump latency); format: in vivo; conditions: footnote symbols: no significant effect at the stated dose, intraperitoneal, 30 minutes prior to testing, hot plate 55° C.
Method: An in vivo protocol was utilized to determine the effectiveness of nicotinic acetylcholine receptor ligands as analgesic agents in the mouse hot plate paradigm.
Separate groups of mice, (n=8/group) were utilized for each dose group. All drugs were administered by the intraperitoneal route of administration. Test drugs were dissolved in water to make a 6.2 mM stock solution. Animals were dosed with this solution (10 mL/kg body weight) for a 62 micromol/kg dose. Lower doses were administered similarly, following serial dilution of the stock solution in half-log increments. Animals were dosed 30 minutes prior to testing in the hot plate. The hot-plate utilized was an automated analgesia monitor (Model #AHP16AN, Omnitech Electronics, Inc. of Columbus, Ohio). The temperature of the hot plate was maintained at 55° C. and a cut-off time of 180 seconds was utilized. A control was run against each compound tested. Latency until the tenth jump was recorded as the dependent measure. An increase in the tenth jump latency relative to the control was considered a significant effect.

[2] = molecular target: neuronal nicotinic acetylcholine receptors (Rattus norvegicus, UniProt P09483+P12390); experiment: [3H]-cytisine binding to neuronal nicotinic acetylcholine receptors, crude synaptic membranes from whole rat brain; conditions: [3H]-CYT 1.25 nM, 60 minutes at 4° C., K1 from IC50 by Cheng and Prusoff correction
Method: The in vitro protocols for determination of nicotinic acetylcholine channel receptor binding potencies of ligands was determined as follows.
Binding of [^3H]-cytisine ([^3H]-CYT) to neuronal nicotinic acetylcholine receptors was accomplished using crude synaptic membrane preparations from whole rat brain (Pabreza et al., Molecular Pharmacol., 1990, 39:9). Washed membranes were stored at −80° C. prior to use. Frozen aliquots were slowly thawed and resuspended in 20 volumes of buffer (containing: 120 mM NaCl, 5 mM KCl, 2 mM MgCl2, 2 mM CaCl2 and 50 mM Tris-Cl, pH 7.4 @4° C.). After centrifuging at 20,000×g for 15 minutes, the pellets were resuspended in 30 volumes of buffer.
The test compounds were dissolved in water to make 10 mM stock solutions.
Samples were incubated for 60 minutes at 4° C., then rapidly filtered through Whatman GF/B filters presoaked in 0.5% polyethyleneimine using 3×4 mL of ice-cold buffer. The filters are counted in 4 mL of Ecolume® (ICN). Nonspecific binding was determined in the presence of 10 μM (−)-nicotine and values were expressed as a percentage of total binding. IC50 values were determined with a four-parameter non-linear regression and IC50 values were converted to K1 values using the Cheng and Prusoff correction (K1=IC50/(1+[ligand]/Kd of ligand).
Each Example number corresponds to the synthetic Examples described above.

neuronal nicotinic acetylcholine receptors, sequence (P09483 31-630): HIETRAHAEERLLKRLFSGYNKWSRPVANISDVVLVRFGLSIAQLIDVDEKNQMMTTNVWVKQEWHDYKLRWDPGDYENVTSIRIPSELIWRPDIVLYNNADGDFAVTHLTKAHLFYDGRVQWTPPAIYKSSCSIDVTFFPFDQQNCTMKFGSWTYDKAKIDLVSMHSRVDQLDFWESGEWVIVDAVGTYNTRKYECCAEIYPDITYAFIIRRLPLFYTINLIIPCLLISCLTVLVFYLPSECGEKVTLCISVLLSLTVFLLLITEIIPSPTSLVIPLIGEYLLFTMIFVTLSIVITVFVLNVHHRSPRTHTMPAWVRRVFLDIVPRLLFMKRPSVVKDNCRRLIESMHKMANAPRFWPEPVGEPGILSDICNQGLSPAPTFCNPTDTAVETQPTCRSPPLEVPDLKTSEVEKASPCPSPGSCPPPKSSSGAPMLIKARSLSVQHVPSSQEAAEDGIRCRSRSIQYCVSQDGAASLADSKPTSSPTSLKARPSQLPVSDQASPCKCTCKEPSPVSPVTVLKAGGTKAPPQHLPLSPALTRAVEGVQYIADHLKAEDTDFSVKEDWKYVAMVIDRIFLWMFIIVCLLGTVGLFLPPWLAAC
neuronal nicotinic acetylcholine receptors, sequence (P12390 25-500): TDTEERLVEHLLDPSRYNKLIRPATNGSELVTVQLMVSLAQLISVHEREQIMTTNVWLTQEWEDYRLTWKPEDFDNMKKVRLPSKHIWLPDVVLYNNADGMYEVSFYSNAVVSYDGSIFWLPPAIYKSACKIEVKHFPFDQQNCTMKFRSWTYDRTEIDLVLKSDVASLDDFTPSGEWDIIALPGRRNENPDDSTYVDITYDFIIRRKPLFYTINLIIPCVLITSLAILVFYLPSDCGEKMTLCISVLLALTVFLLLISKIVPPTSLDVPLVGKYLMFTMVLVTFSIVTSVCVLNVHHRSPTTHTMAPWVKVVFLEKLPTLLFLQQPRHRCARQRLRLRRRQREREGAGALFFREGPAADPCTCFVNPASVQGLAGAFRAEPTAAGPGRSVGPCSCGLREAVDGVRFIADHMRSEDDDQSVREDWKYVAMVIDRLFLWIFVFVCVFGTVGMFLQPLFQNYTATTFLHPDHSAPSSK

Compound	minimal effective dose ([1]; Mus musculus, ip, 0.5 h, read-out: Analgesic MED)	Analgesic MED (μmol/kg) [1]	melting point	Ki [2]
CN(C)[C@H](COc1cnc(Cl)c(C=Cc2ccncc2)c1)Cc1ccccc1 [Example 24, 5-[(S)-2-N-dimethyl-amino-3-phenyl-1-propyloxy]-2-chloro-3-(4-vinylpyridinyl)pyridine di-p-toluenesulfonic acid]	> 62 µmol/kg			
C[C@@H](COc1ccc(Cl)nc1)N(C)C.Cc1ccc(S(=O)(=O)O)cc1 [Example 27, 5-[(S)-2-dimethylamino-1-propyloxy]-2-chloro pyridine p-toluenesulfonic acid]		* (no effect at 62)		
C[C@@H](COc1cnc(Cl)c(C=Cc2ccncc2)c1)N(C)C (single isomer, unassigned) [Example 14]		* (no effect at 62)	79 to 81 °C	
5-[(S)-2-amino-1-propyloxy]-2-chloro-3-(4-vinylpyridinyl)pyridine p-toluenesulfonic acid [Example 13]				76.1 pM
C[C@H](COc1cnc(Cl)c(C=Cc2ccncc2)c1)N(C)C (single isomer, unassigned) [Example 39]		* (no effect at 62)	81 to 83 °C	

From US6656958B2, “Substituted pyridine compounds useful for controlling chemical synaptic transmission” (Abbott Laboratories, priority 2000, dated 2003)
